Experiments:
AMPA receptor = test: Membrane binding, [3H]-AMPA, rat cortex homogenate; conditions: rat cortex membranes
Procedure: This is carried out using a rat cortex homogenate. The membrane pellet is prepared in a conventional manner in a sucrose buffer by differential centrifugations, and then frozen until used. After thawing, […] of membrane homogenate are taken up in a Tris-HCl (30 mM), CaCl2 (2.5 mM) buffer, pH 7.4, and incubated at 4° C. for 30 minutes in the presence of 25 μl of [^3 H]-AMPA or [^3 H]-kainate and 25 μl of the test product. Non-specific binding is determined in the presence of 10 μM quisqualate (AMPA binding) or 10 μM kainic acid (kainate binding). The membranes are then isolated by filtration. After drying of the filters, the radioactivity is measured by scintillation.

[1] = test system: audiogenic (glutamate-dependent) convulsions in DBA/2 mice; test: Audiogenic convulsions test in DBA/2 mice; assay type: in vivo, mouse (DBA/2); conditions: for activity by the oral route, audiogenic convulsions: oral administration
Text: (§1) Furthermore, the compounds of the invention have an in vivo activity which is unique and exceptional for the products of this class. In fact, in the audiogenic convulsions test in DBA/2 mice carried out according to the methodology described by CROUCHER et al.

[2] = test system: hippocampal pyramidal neurons (CA1); test: Transient global cerebral ischemia in Gerbil; assay type: in vivo
Procedure: 1) Transient global cerebral ischemia in Gerbil
Transient and complete arrest of cerebral blood flow which is observed in clinical situation during a cardiac infarct, gives rise to a delayed death of specific vulnerable neurons, especially in hippocampus, a crucial cerebral region for cognitive functions. This phenomenon can be experimentally reproduced after transient occlusion of common carotid arteries.
In Gerbil, a transient occlusion (5 minutes) of carotid arteries gives rise to a total loss of hippocampal pyramidal neurons (CA1). This death can be observed only 3 or 4 days after ischemia. Numerous studies have shown that it could be due essentially to an excessive release of glutamate during the post-ischemic reperfusion.
NBQX (30 mg/kg IP) protects 50% of neurons in case of treatment 30 minutes before then b.i.d. after ischemia until histological measurement 4 days later.

[3] = test system: neurotoxic excitatory currents in the hippocampus; test: Neurotoxic excitatory currents induced in the hippocampus by stimulation of the glutamatergic pathways (Schaeffer's collaterals); conditions: read-out: IC50 with respect to neurotoxic excitatory currents induced in the hippocampus
Procedure: This inhibition is strong and constant since the same IC50 (2 μM) is found with respect to neurotoxic excitatory currents induced in the hippocampus by stimulation of the glutamatergic pathways (Schaeffer's collaterals).

[4] = test system: Kainate current (glutamate receptors; AMPA/kainate receptors); test: Currents induced by kainate in Xenopus oocytes expressing the glutamate receptors; assay type: cell-based, rat; conditions: kainate 100 μM, read-out: IC50, inhibition of kainate current
Procedure: 2/ Currents induced by EAA in Xenopus oocytes
Xenopus oocytes are injected with 50 ng of poly(A)^+ mRNA isolated from rat cerebral cortex, and incubated for 2 to 3 days at 18° C. to permit protein expression therein. The inward currents induced by EAA are measured in a medium of composition: NaCl (82.5 mM), KCl (2.5 mM), CaCl2 (1 mM), MgCl2 (1 mM), NaH2 PO4 (1 mM), HEPES (5 mM), pH 7.4, by the 2-electrode voltage-clamp method (potential=-60 mV). For measurement of the currents induced by NMDA and glycine, MgCl2 is absent from the medium and CaCl2 is brought to a concentration of 2 mM. The EAA agonists that induce the currents are used at the following concentrations: kainate: 100 μm; AMPA: 30 μM; glycine/NMDA: 3/30 μM. The test product is applied 30 seconds before and during the application of the agonist.

[5] = Audiogenic convulsions test in DBA/2 mice; assay type: in vivo, mouse (DBA/2); conditions: mouse, in vivo, IP vs PO
Text: as §1

cortical infarct = test: Permanent focal ischemia in mice (MCA occlusion); assay type: in vivo
Procedure: 2) Permanent focal ischemia in mice
This ischemia can be perfectly reproduced in mice by electrocoagulation of MCA, giving rise to a well delimited cortical infarct 24 hours later. This infarct can be easily measured by histological examination.

[6] = 30 mg/kg IP, 30 minutes before then b.i.d. after ischemia, histology 4 days later
[7] = 30 mg/kg IP before then 3 hours after ischemia, significant decrease
[8] = 30 mg/kg, curative only (5 minutes, 1 hour and 2 hours after MCA occlusion)

Compound	Ki (AMPA receptor) [nM]	activity by the oral route, audiogenic convulsions [1]	protection of hippocampal neurons ([2]; 10 mg/kg IP, same conditions) [%]	protection from neuronal death (in words) [2, 6]	IC50 [3] [nM]	IC50 [4] [nM]	bioavailability index (ID50 IP/ID50 PO) [5]	ED50 ([1]; Mus musculus, IP administration, read-out: ID50, audiogenic convulsions) [mg/kg]	change of infarct volume (cortical infarct; [7]) [%]	change of infarct volume (cortical infarct; [8]) [%]	protection of neurons [2, 6] [%]	effect on infarct volume (in words) (cortical infarct; [8])
N#Cc1cc2[nH]c(=O)c(=O)[nH]c2cc1[N+](=O)[O-] [CNQX, 6-cyano-7-nitro-2,3-quinoxalinedione, reference compound]	70	do not have any activity by the oral route	–	–	–	–	–	–	–	–	–	–
O=c1[nH]c2cc(Cl)c(Cl)cc2cc1P(=O)(O)O [Example 2, 6,7-Dichloro-2(1H)-quinolone-3-phosphonic acid]	900	also after oral administration	50	protects completely from neuronal death	2000	2000	~0.3	18.7	-26	-23	–	–
NS(=O)(=O)c1cccc2c1c([N+](=O)[O-])cc1[nH]c(=O)c(=O)[nH]c12 [NBQX, 6-nitro-7-sulfamoylbenzo[f]quinoxaline-2,3-dione, reference compound]	–	do not have any activity by the oral route	–	–	–	–	–	–	-26	–	50	remains ineffective

— patent US5646132A, “2(1H)-quinolone compounds” (Adir et Compagnie, priority 1993, dated 1997)
